Assays:
Sprague-Dawley-rats [1] = assay: Inhibition of kaolin-induced paw oedema, test compound injected in each paw simultaneously with kaolin; type: in vivo; conditions: 1 mg injected in each paw simultaneously with kaolin
Method: (§1) By subplantar injection of 0.1 ml of a kaolin suspension (100 mg/ml) into Sprague-Dawley-rats, an oedema is induced and the paw volume is measured plethysometrically every hour. Three hours after the induction of the oedema a suspension of the respective test compound in a 1% carboxymethylcellulose sodium solution (5 ml/kg body weight of the animal) is administered intraperitoneally. In table 2 the percentage of alteration in the paw volume due to the inhibition of the oedema by the test compound in relation to the volume determined immediately before the test compound was applied (i.e. the initial value) is shown. (FIGS. of more than 100% indicate a decrease in the volume of the oedema below the initial value):
In other experiments the test compound was administered simultaneously with the application of the kaolin suspension by injection of 1 mg of the test compound dissolved in 0.1 ml of a 1% carboxymethylcellulose sodium solution in each paw. The following maximum values of inhibition of the oedema or the formation of the oedema, respectively, were determined: […]

5-lipoxygenase = biological target: T1, 5-lipoxygenase (Rattus norvegicus, UniProt P12527); assay: Inhibition of 5-lipoxygenase in rat basophilic leukemia cells (5-HETE and LTB4 formation from [14C]-arachidonic acid); type: cell-based; conditions: indomethacin 10 μM, A 23187, room temperature, 5 minutes, read-out: IC50 for inhibition of 5-lipoxygenase (I)
T1 construct: endogenous in cells; host or cells: rat basophilic leukemia cells
T1 sequence (P12527 1-673): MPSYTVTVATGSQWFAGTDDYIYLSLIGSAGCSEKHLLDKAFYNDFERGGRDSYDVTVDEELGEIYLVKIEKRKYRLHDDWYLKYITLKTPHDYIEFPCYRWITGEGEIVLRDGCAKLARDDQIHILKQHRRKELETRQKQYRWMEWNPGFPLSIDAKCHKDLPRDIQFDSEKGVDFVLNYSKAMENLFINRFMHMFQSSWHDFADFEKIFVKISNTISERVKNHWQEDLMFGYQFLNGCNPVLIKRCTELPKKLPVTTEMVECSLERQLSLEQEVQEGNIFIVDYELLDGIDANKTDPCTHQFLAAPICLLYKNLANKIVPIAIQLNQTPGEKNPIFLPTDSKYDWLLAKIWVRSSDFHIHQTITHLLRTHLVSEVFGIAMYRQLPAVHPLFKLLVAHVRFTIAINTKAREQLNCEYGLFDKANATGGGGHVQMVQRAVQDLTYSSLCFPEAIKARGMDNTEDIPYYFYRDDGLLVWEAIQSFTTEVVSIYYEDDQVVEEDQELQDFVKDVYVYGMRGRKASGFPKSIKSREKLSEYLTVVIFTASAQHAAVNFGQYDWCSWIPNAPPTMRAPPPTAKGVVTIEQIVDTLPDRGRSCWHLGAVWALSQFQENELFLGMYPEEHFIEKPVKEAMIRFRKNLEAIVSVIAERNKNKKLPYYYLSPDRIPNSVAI
Method: To determine the inhibition of 5-lipoxygenase rat basophilic leukemia cells were cultured in vitro, and after a cell concentration of about 10^6 cells/ml had been obtained, the cells were harvested by centrifugation at 400 g. The precipitate was suspended in 50 mM potassium phosphate buffer of pH 7.4 at 1.5×10^7 cells/ml.
To 1 ml each of this suspension there was added indomethacin (10 μM) and calcium chloride (2 mM) and then the mixture was incubated in presence or absence of a test compound with [^14 C]-arachidonic acid and the calcium ionophore A 23 187 [Chaney et al., J. Am. Chem. Soc. 96: 1932-3 (1974)] at room temperature for 5 minutes. The mixture was acidified to pH 5 and extracted with ethyl acetate to isolate the metabolites of arachidonic acid formed by the enzymatic action of 5-lipoxygenase. These were separated by thin layer chromatography using a solvent mixture known to be suitable for leukotriene analysis [c.f. Jakschik et al., Biochem. Biophys. Res. Commun. 102, 624 (1984)]. The distribution of the radioactivity among the different metabolites was measured with a Thin Layer Scanner (TLC linear analyzer). By bringing into relationship the percentages of the amount of 5-hydroxyeicosatetraenoic acid (5-HETE) and leukotriene B4 (LTB4) formed under the action of 5-lipoxygenase to the amount or the concentration, respectively, of the total radioactivity used and of the test compound of formula I the "IC50 -value I" (i.e. the concentration of the test compound which causes an 50%-inhibition of the 5-lipoxygenase) is determined.

Sprague-Dawley-rats [2] = assay: Inhibition of kaolin-induced paw oedema, test compound given intraperitoneally three hours after induction; type: in vivo; conditions: for % Inhibition (Maximum) of oedema: 3 h after kaolin, more than 100% = decrease below initial value
Method: as §1, with “value): […]” for “value):”

cyclooxygenase = biological target: T2, cyclooxygenase (Ovis aries, UniProt P05979); assay: Inhibition of cyclooxygenase in sheep seminal vesicle microsomes; type: biochemical; conditions: for Quotient IC50 II/IC50 I: cyclooxygenase IC50 (II) / 5-lipoxygenase IC50 (I); for IC50: sheep seminal vesicle microsomes, pH 7.5, 10 minutes, room temperature, read-out: IC50 for inhibition of cyclooxygenase (II)
T2 construct: suspension of sheep seminal vesicle microsomes; from tissue; host or cells: sheep seminal vesicle microsomes
T2 sequence (P05979 25-600): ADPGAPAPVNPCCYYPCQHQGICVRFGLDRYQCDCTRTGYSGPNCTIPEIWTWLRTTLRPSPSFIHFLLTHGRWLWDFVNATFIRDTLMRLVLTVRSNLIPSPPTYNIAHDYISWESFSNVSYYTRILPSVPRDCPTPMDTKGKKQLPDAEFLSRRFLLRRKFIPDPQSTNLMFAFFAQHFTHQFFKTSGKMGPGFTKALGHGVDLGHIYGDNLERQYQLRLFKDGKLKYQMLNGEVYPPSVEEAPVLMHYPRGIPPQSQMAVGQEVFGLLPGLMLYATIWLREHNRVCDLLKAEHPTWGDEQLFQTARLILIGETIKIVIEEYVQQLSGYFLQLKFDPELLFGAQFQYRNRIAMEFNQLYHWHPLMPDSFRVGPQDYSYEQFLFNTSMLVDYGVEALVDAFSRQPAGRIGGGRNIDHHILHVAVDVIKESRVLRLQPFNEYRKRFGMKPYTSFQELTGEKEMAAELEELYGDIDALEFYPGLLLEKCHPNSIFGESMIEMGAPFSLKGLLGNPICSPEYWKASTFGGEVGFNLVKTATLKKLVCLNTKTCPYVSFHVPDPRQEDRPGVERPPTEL
Method: The effect of the test compounds on the activity of cyclooxygenase was tested usinfg a suspension of sheep seminal vesicle microsomes in 50 mM potassium phosphate buffer of pH 7.5 which was incubated for 10 minutes at room temperature with the test compound and [^14 C]-arachidonic acid. After acidification with glacial acetic acid the mixture was extracted with ethyl acetate and the residue obtained after evaporation of the extract separated by thin layer chromatography on plates precoated with silica gel using the solvent system ether/hexane/glacial acetic acid (50:50:1).

Compound | % Inhibition (Maximum) of oedema (Sprague-Dawley-rats [1]) [%] | Time after administration of the test compound (of maximum inhibition) (Sprague-Dawley-rats [1]) [h] | IC50 (5-lipoxygenase) [µM] | Time after administration of the test compound (of maximum inhibition) (Sprague-Dawley-rats [2]; 100.0 mg/kg intraperitoneally) [h] | % Inhibition (Maximum) of oedema (Sprague-Dawley-rats [2]; 100.0 mg/kg intraperitoneally) [%] | Quotient IC50 II/IC50 I (cyclooxygenase) | IC50 (cyclooxygenase) [µM] | Time after administration of the test compound (of maximum inhibition) (Sprague-Dawley-rats [2]; 46.4 mg/kg intraperitoneally) [h] | % Inhibition (Maximum) of oedema (Sprague-Dawley-rats [2]; 46.4 mg/kg intraperitoneally) [%]
Oc1ccc(C#CCCCCCCC#CC(O)c2ccccc2)cc1O (stereo not shown) [Example 15, 1-(3',4'-Dihydroxyphenyl)-11-hydroxy-11-phenyl-undeca-1,9-diyne] | 64 | 5 | 0.32 | 2 | 73 | > 320.0 | > 100 |  | 
Oc1ccc(/C=C\CCCCCC/C=C/C(O)C2CCCCC2)cc1O (stereo not shown) [Example 22d, 11-Cyclohexyl-1-(3',4'-dihydroxyphenyl)-11-hydroxy-undeca-1Z,9E-diene] |  |  | 2.8 |  |  | 64.3 | 180 |  | 
CC(C)(O)C#CCCCCCCC#Cc1ccc(O)c(O)c1 [Example 13, 1-(3',4'-Dihydroxyphenyl)-11-hydroxy-11-methyl-dodeca-1,9-diyne] |  |  | 0.35 |  |  | 88.6 | 31 |  | 
OCC#CCCCCCCC#Cc1ccc(O)c(O)c1 [Example 7, 1-(3',4'-Dihydroxyphenyl)-11-hydroxy-undeca-1,9-diyne] | 36 | 2 | 0.15 | 1 | 164 | 253.3 | 38 | 1 | 65
CCCCCC(O)C#CCCCCCCC#Cc1ccc(O)c(O)c1 (stereo not shown) [Example 14, 1-(3',4'-Dihydroxyphenyl)-11-hydroxy-hexadeca-1,9-diyne] | 46 | 2 | 0.21 | 2 | 127 | 119.1 | 25 | 1 | 68
Oc1ccc(C#CCCCCCC/C=C/C(O)C2CCCCC2)cc1O (stereo not shown) [Example 22c, 11-Cyclohexyl-1-(3',4'-dihydroxphenyl)-11-hydroxy-undec-9E-en-1-yne] |  |  | 2.9 |  |  | 44.8 | 130 |  | 
COc1cc(C#CCCCCCCC#CCO)cc(OC)c1O [Example 18, 1-(3',5'-Dimethoxy-4'-hydroxyphenyl)-11-hydroxy-undeca-1,9-diyne] |  |  | 0.1 |  |  | 380.0 | 38 |  | 
Oc1ccc(C#CCCCCCCC#CC(O)C2CCCCC2)cc1O (stereo not shown) [Example 16, 11-Cyclohexyl-1-(3',4'-dihydroxyphenyl)-11-hydroxy-undeca-1,9-diyne] | 45 | 7 | 0.28 | 1 | 54 | 132.1 | 37 |  | 
COc1cc(C#CCCCCCCC#CCO)ccc1O [Example 5, 11-Hydroxy-1-(4'-hydroxy-3'-methoxyphenyl)-undeca-1,9-diyne] | 61 | 3 |  |  |  |  |  |  | 
OC/C=C\CCCCCC/C=C\c1ccc(O)c(O)c1 [Example 9, 1-(3',4'-Dihydroxyphenyl)-11-hydroxy-undeca-1Z,9Z-diene] |  |  | 0.31 |  |  | 90.3 | 28 |  | 
